Activity calls are given as the source filed them.
Legend:
Protein skinhead-1 = molecular target: T1, Protein skinhead-1 (Caenorhabditis elegans, UniProt P34707); format: functional
T1 sequence (P34707 whole entry): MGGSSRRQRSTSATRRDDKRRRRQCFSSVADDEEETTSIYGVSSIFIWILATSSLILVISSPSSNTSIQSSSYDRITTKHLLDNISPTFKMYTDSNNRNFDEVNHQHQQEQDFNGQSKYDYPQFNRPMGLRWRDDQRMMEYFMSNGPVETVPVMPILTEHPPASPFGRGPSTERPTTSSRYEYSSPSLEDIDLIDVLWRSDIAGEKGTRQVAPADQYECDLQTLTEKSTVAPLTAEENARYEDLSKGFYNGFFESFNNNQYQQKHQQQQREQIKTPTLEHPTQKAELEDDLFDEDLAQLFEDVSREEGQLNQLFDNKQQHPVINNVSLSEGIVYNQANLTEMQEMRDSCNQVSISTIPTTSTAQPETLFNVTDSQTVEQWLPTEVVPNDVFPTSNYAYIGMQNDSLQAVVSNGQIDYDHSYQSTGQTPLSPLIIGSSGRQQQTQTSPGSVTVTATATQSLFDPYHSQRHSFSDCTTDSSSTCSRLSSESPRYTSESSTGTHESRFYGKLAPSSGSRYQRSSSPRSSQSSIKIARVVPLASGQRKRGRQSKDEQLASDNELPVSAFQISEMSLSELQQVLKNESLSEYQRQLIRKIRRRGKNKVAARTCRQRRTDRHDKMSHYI

Cytochrome P450 2C9 = Cytochrome P450 2C9 (Homo sapiens, UniProt P11712)
Cytochrome P450 3A4 = Cytochrome P450 3A4 (Homo sapiens, UniProt P08684);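 also: CYP3A4 tested as one member of a cytochrome P450 panel screen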
Streptokinase A = molecular target: T2, Streptokinase A (Streptococcus pyogenes serotype M1, UniProt P10520); assay: S. pyogenes streptokinase expression inhibitors, potency, dose response, plasminogen activation absorbance, OD405 (AID 1914); format: functional, Streptococcus pyogenes M1 GAS;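 also: secreted streptokinase activity via plasminogen activation per viability signal from cell pellet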
T2 sequence (P10520 whole entry): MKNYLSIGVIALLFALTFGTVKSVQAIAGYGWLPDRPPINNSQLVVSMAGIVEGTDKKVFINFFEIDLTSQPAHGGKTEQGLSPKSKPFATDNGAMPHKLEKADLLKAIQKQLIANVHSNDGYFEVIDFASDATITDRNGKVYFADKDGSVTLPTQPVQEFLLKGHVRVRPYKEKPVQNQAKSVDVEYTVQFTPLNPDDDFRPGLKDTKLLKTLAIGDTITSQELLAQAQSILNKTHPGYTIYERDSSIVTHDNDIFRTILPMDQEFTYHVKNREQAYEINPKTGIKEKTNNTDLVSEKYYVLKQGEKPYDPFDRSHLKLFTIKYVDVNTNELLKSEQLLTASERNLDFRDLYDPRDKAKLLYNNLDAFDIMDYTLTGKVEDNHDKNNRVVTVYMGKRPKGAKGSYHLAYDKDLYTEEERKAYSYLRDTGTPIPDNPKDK

Streptococcus = assay: Group A Streptococcus viability loss, dose response, counter-screen for streptokinase expression inhibitor project, luminescence, BacTiterGlo (AID 1915); format: functional, organism-based;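 also: potency for reduction of bacterial viability or growth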
[1] = growth suppression of PTEN-null colon cells, dose response, cell-based, HCT116 PTEN knockout (AID 1047); format: functional;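 also: HCT116 colon tumor cells with PTEN knocked out; cells exposed to compound for 60 hours before readout; potency for loss of cell viability measured by luminescence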
[2] = inhibitors of firefly luciferase expression or activity, dose response, H4 neuroglioma cells, luminescence (AID 1990); format: functional, cell-based
[3] = growth suppression of beta-catenin-knockout colon cells, dose response, cell-based, HCT116, human colon tumor (AID 1045); format: functional;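 also: HCT116 colon tumor cells with beta catenin knocked out; cells exposed to compound for 60 hours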
[4] = Luminescence Cell-Based Dose Response HTS to Identify Inhibitors of 5'UTR Stem-Loop Driven Prion Protein mRNA Translation in H4 Neuroglioblastoma Cells. [Related pubchem assays: 1827 (Project Summary), 1813 (Primary HTS)]; format: functional
[5] = inhibitors of SNCA 5'UTR-driven reporter translation, confirmation, H4 neuroglioma cells, luminescence (AID 1988); format: functional, cell-based
[6] = molecular target: T3, Replicative DNA helicase DnaB (Mycobacterium tuberculosis, UniProt P9WMR3); assay: DnaB intein splicing inhibitors, dose response, biochemical, cell-free fluorescence (AID 449749); format: functional
T3 sequence (P9WMR3 whole entry): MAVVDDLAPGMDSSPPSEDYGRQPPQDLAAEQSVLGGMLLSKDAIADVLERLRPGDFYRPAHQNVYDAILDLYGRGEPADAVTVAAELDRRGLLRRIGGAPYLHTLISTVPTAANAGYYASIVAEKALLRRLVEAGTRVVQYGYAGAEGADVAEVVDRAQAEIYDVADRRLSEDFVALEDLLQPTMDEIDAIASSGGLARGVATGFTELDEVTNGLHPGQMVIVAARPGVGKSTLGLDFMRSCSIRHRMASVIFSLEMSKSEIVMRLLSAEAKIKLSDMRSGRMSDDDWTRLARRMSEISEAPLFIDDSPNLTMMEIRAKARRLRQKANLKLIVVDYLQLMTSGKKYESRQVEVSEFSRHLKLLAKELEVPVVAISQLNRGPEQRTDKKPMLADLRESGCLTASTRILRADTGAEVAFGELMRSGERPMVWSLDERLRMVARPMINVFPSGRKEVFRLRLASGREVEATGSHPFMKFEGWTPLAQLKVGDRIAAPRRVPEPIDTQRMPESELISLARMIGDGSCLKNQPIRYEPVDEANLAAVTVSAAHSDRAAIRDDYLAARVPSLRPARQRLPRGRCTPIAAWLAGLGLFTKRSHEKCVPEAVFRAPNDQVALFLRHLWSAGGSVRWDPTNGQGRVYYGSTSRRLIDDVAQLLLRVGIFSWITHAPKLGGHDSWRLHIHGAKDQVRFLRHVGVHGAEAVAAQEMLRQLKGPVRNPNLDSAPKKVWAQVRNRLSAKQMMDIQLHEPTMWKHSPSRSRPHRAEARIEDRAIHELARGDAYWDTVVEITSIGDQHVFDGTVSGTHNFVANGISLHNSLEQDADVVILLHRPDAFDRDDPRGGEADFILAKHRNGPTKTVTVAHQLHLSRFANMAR

Protein RecA = molecular target: T4, Protein RecA (Mycobacterium tuberculosis, UniProt P9WHJ3); assay: Fluorescence Cell-Free Homogeneous Dose Retest to Identify Inhibitors of RecA-Intein Splicing Activity. [Related pubchem assays (depositor defined):AID2097, AID2223, AID489010, AID492950]; format: functional
T4 sequence (P9WHJ3 whole entry): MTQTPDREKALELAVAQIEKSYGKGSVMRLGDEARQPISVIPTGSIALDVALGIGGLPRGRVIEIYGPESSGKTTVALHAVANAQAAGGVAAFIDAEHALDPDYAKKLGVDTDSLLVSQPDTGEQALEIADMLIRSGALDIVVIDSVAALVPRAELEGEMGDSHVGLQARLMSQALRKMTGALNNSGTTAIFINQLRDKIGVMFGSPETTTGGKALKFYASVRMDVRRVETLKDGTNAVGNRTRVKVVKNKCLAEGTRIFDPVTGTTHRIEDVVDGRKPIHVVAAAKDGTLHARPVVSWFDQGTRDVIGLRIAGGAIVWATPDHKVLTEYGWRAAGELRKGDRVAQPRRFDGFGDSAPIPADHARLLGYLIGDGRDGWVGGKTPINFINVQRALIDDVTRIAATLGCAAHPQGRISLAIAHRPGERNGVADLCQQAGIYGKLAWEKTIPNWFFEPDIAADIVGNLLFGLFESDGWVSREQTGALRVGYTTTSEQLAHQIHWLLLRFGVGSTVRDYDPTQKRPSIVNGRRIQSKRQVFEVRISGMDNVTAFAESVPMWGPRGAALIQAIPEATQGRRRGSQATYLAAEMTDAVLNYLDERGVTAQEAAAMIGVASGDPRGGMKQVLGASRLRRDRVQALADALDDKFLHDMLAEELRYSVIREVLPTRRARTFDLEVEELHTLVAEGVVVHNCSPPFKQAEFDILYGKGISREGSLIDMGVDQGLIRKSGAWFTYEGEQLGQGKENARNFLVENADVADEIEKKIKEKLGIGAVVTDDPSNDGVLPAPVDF

[7] = molecular target: T5, Ubiquitin-conjugating enzyme E2 N (Homo sapiens, UniProt P61088); format: functional;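 also: Dose-response confirmation in a TR-FRET assay detecting UBC13-driven polyubiquitin chain formation, inhibition measured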
T5 sequence (P61088 whole entry): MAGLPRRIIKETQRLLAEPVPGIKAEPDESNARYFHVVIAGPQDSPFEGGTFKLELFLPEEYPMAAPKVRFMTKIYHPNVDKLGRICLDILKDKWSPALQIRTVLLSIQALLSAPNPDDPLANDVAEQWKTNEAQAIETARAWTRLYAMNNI

[8] = tested on: Streptococcus sp. 'group A'; assay: growth inhibition of control SK(-) GAS strain, dose response, counter-screen for streptokinase expression inhibitor project, luminescence, kanamycin, BacTiterGlo, confirmation (AID 1900); format: functional, organism-based
[9] = inhibitors of intracellular T. cruzi replication, confirmation, NIH3T3 host cells, beta-gal luminescence (AID 2044); format: functional, cell-based;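 also: intracellular parasites grown in NIH/3T3 mouse fibroblasts as host cells; luminescent beta-galactosidase reporter signal from transgenic T. cruzi replicating inside host cells; inhibitors lower the luminescence signal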
[10] = cytotoxicity toward NIH3T3 fibroblasts, dose response, counter-screen, cell-based, ATP luminescence, mouse fibroblasts (AID 2010); format: functional;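 also: cells exposed to compound for about 90 hours before reading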
[11] = Shn3 3'UTR reporter inhibitors, dose response, cell-based, Clone20 osteoblasts, firefly luciferase, cherry-picked (AID 624132); format: functional;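 also: firefly luciferase luminescence from reporter carrying the Shn3 3'UTR in osteoblasts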
Vero = assay: cells; format: functional; conditions: Chlorocebus sabaeus
[12] = LGR2 antagonists, dose response, cell-based, HEK293, CRE-luciferase reporter, cherry pick, set 2 (AID 743343); format: functional;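 also: transfected cells were stimulated with diluted bursicon conditioned medium after compound addition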
[13] = MC4R antagonists, dose response, counter-screen for LGR2 antagonist project, cell-based, plate reader, cherry pick (AID 743444); format: functional;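 also: transfected HEK 293 cells stimulated with alpha-MSH peptide; potency of inhibitors of the alpha-MSH evoked signal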
[14] = NIH-3T3 fibroblast cytotoxicity, dose response, cytotoxicity control, cell-based, fluorescence, Alamar Blue, secondary assay (AID 2327); format: functional;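 also: NIH-3T3 mouse fibroblasts cultured with fluconazole at 8 µg/mL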
[15] = C. albicans growth with fluconazole, confirmation, fluorescence, retest (AID 2467); format: functional, cell-based
[16] = HepG2 cell cytotoxicity, dose response, cytotoxicity control for Shn3 inhibitor project, CellTiter-Glo, cherry-picked (AID 624134); format: functional, cell-based
[17] = control 3'UTR Renilla luciferase suppression, dose response, counter-screen for Shn3 inhibitor project, cell-based, Clone20-Shn3RL, cherry-picked (AID 624133); format: functional

Sequence of Cytochrome P450 2C9 (P11712 whole entry): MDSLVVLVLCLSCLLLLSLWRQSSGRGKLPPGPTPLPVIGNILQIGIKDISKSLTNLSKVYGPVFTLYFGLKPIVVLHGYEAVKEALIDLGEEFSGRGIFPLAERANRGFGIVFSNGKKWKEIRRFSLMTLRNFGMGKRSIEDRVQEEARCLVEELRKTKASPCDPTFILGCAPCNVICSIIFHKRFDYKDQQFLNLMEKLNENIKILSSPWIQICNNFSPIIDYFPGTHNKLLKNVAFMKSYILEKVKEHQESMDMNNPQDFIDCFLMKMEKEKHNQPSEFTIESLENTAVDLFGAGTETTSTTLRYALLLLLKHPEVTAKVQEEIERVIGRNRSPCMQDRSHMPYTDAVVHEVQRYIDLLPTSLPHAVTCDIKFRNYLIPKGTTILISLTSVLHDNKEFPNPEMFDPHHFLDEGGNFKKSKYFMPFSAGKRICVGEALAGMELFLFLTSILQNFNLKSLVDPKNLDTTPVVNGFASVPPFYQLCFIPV
Sequence of Cytochrome P450 3A4 (P08684 whole entry): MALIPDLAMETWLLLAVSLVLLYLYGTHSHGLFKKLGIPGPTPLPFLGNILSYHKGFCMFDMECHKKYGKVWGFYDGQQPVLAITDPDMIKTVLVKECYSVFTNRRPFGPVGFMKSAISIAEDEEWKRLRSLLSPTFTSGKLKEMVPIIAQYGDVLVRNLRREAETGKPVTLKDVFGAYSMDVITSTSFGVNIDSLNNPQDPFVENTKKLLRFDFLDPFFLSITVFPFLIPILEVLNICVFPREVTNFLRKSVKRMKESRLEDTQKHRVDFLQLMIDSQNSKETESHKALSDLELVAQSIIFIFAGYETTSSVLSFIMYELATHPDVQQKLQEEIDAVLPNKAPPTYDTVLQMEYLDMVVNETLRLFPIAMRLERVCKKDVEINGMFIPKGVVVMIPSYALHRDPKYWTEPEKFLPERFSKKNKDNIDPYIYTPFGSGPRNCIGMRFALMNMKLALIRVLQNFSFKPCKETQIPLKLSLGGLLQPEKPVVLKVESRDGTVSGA

CCc1sc(N(C(=O)Cc2ccccc2)c2cccc(F)c2)nc1-c1ccc(C)cc1
IC50 (Protein skinhead-1): > 100 µM (inactive) | AC50 (Cytochrome P450 2C9): 6.31 µM (inconclusive) | AC50 (Cytochrome P450 3A4): 17.8 µM (inconclusive) | EC50 (Streptokinase A): 32.6 µM (active) | EC50 (Streptococcus): > 150 µM (not active)

CCOC(=O)Cc1csc(N/C=C2/C(=O)N(c3ccc(C)c(C)c3)C(=O)c3ccccc32)n1
EC50 [1]: 15.1 µM (active) | EC50 [2]: > 120 µM (not active) | EC50 [3]: 10 µM (active) | EC50 [4]: 10.1 µM (active) | EC50 [5]: > 120 µM (not active)

CC1CCN(S(=O)(=O)c2ccc3c(c2)oc(=O)n3CC(=O)N2c3ccccc3CC2C)CC1 (centres undefined)
EC50 [1]: 39.5 µM (active) | EC50 [3]: 30.9 µM (active)

CCOC(=O)c1nnc(-c2ccccc2)nc1Sc1c(Cl)cccc1Cl
EC50 [1]: 26.9 µM (active) | EC50 [3]: 27.7 µM (active) | AC50 [6]: 2.22 µM (active) | EC50 (Protein RecA): > 380 µM (inconclusive)

Cc1ccccc1OCc1nc2ccccc2c(=O)n1/N=C/c1c[nH]nc1-c1ccc(Br)cc1
EC50 [1]: 7.05 µM (active) | EC50 [3]: 7.51 µM (active)

Cc1ccc(-c2noc(CCC(=O)NCC3CCN(Cc4cccc(C)c4)CC3)n2)cc1
IC50 [7]: > 20 µM (inactive)

Cc1c(C)n(Cc2ccc(F)cc2)c2ccc(C(=O)N3CCN(c4ccccn4)CC3)cc12
IC50 (Protein skinhead-1): > 100 µM (inactive) | EC50 [8]: 16.5 µM (active) | EC50 (Streptokinase A): 146 µM (inconclusive) | EC50 (Streptococcus): 28.4 µM (active)

C(=C1/CCCC2=C1Nc1ncnn1C2c1ccccc1)/c1ccccc1 (centres undefined)
EC50 [1]: 3.45 µM (active) | EC50 [3]: 2.58 µM (active) | AC50 (Cytochrome P450 2C9): 7.94 µM (inconclusive) | EC50 [9]: 3.45 µM (active) | EC50 [10]: 6.87 µM (active)

Cc1ccccc1Nc1nnc(SCC(=O)NC(=O)Nc2ccc3c(c2)OCCO3)s1
EC50 [1]: 14.6 µM (active) | EC50 [3]: 14.5 µM (active)

COc1ccccc1/C=C1\CCCC2=C1Nc1nnnn1C2c1ccccc1OC (centres undefined)
EC50 [1]: 8.85 µM (active) | AC50 [11]: 36 µM (active) | EC50 [3]: 6.96 µM (active)

O=C(CCN1C(=O)/C(=C\c2ccccc2)SC1=S)N1CCOCC1
CC50 (Vero): 24.5 µM (active)

C[C@H]1CN([C@@H](C)CO)S(=O)(=O)c2ccc(Br)cc2O[C@@H]1CN(C)Cc1cccc(F)c1
CC50 (Vero): > 25 µM (active)

COc1ccc(C=NN=C2c3ccccc3-c3ccccc32)cc1O
CC50 (Vero): > 25 µM (active)

C=CCNC(=O)c1c(Cl)nc(C)c([N+](=O)[O-])c1C
AC50 [12]: 42.7 µM (active) | AC50 [13]: 55.3 µM (active)

O=C(/C=C/c1ccncc1)c1ccc2c(c1)OCCO2
CC50 (Vero): > 25 µM (active)

C/C(=N\OCc1ccc(C#N)cc1)c1cc2ccccc2o1
IC50 (Protein skinhead-1): 64 µM (inactive) | EC50 [14]: > 160 µM (inconclusive) | EC50 [15]: > 38 µM (not active)

O=C(/C=C/c1ccc(OCc2ccccc2)c(OCc2ccccc2)c1)c1cccnc1
EC50 [1]: 8.72 µM (active) | AC50 [16]: 40.5 µM (active) | AC50 [11]: 5.19 µM (active) | EC50 [3]: 6.92 µM (active) | AC50 [17]: 19.3 µM (active)

CC1CCN(c2c(NCc3ccc(C(=O)N4CCN(C5CCCCC5)CC4)cc3)c(=O)c2=O)CC1
IC50 [7]: > 20 µM (inactive)

Cc1nc(N)c2c(Cc3cccc4ccccc34)nn(C(C)(C)C)c2n1
IC50 [7]: > 20 µM (inactive)

Reference: ChEMBL document CHEMBL1201862, “PubChem BioAssay data set” (2004)
